Earlier results on 1 compound are cited in patent US8193242B2 (XenoPort, Inc., priority 2005, dated 2012).

The conditions of the data set: following oral administration.

For the compound `CC(C)(C)C(=O)Oc1ccc(C[C@H](N)C(=O)O)cc1O` [NB-355], the “Duration of circulating levodopa” value is “prolonged” and the “Plasma concentrations of levodopa” value is “low”.
